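96-well plates; 48 h exposure; 5 concentrations. Endpoints by linear interpolation between flanking doses. Not reached: highest tested concentration assigned. GI50 is the concentration that inhibits growth by half.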 Active and inactive are the calls of the source. No stated cut-off is given here; in the data, active = GI50 up to about 1.1 µM and inactive = higher.
Columns and labels:
Test in all cases: DTP human tumour cell line panel, 48 h
RPMI-8226 = test system: RPMI-8226
RXF 393 = test system: RXF 393
HOP-62 = test system: HOP-62
A549 = test system: A549
IGROV-1 = test system: IGROV-1
SK-OV-3 = test system: SK-OV-3
ACHN = test system: ACHN
HCC 2998 = test system: HCC 2998
NCI-H226 = test system: NCI-H226
SF-539 = test system: SF-539
NCI-H460 = test system: NCI-H460
SN12C = test system: SN12C
COLO 205 = test system: COLO 205
SW-620 = test system: SW-620
CCRF-CEM = test system: CCRF-CEM
EKVX = test system: EKVX

Measured: GI50

C[C@]12CC(C=O)C(=O)C(O)=C1CC[C@@H]1C2CC[C@@]2(C)C1CC[C@]2(C)O (stereo not given in full)
inactive: RPMI-8226 16.6 µM | RXF 393 21.4 µM | HOP-62 22.1 µM | A549 57.4 µM | IGROV-1 19.2 µM | SK-OV-3 21.4 µM | ACHN 22.3 µM | HCC 2998 10.1 µM | NCI-H226 18.6 µM | SF-539 18.5 µM | NCI-H460 30.3 µM | SN12C 21.2 µM | COLO 205 18.8 µM | SW-620 34.3 µM | CCRF-CEM > 10 µM | EKVX 31.8 µM

COC(=O)C12C3C4C1C1C2C3C41I (stereo not given)
inactive: RPMI-8226 > 100 µM | RXF 393 > 100 µM | HOP-62 > 100 µM | A549 > 100 µM | IGROV-1 > 100 µM | SK-OV-3 > 100 µM | ACHN > 100 µM | HCC 2998 > 100 µM | NCI-H226 > 100 µM | SF-539 > 100 µM | NCI-H460 > 100 µM | SN12C > 100 µM | COLO 205 > 100 µM | SW-620 > 100 µM | CCRF-CEM > 100 µM | EKVX > 100 µM

Cc1nc(N)nc(CCC(=O)Nc2cccc(C(F)(F)F)c2)c1-c1ccc(Cl)cc1
inactive: RPMI-8226 > 100 µM | RXF 393 > 100 µM | HOP-62 > 100 µM | A549 > 100 µM | IGROV-1 > 100 µM | SK-OV-3 > 100 µM | ACHN > 100 µM | HCC 2998 > 100 µM | NCI-H226 > 100 µM | SF-539 > 100 µM | NCI-H460 > 100 µM | SN12C > 100 µM | COLO 205 > 100 µM | SW-620 > 100 µM | CCRF-CEM > 100 µM | EKVX > 100 µM

CC(=O)NC1=C(NCC(C)C)C(=O)c2ccccc2C1=O
inactive: RPMI-8226 37.3 µM | RXF 393 12.5 µM | HOP-62 89.5 µM | A549 54.3 µM | IGROV-1 43.5 µM | SK-OV-3 78.2 µM | ACHN > 100 µM | HCC 2998 > 100 µM | NCI-H226 16 µM | SF-539 17.3 µM | NCI-H460 34.7 µM | SN12C 16.9 µM | COLO 205 > 100 µM | SW-620 16.5 µM | CCRF-CEM 7.18 µM | EKVX 25 µM

Cc1ccc(S(=O)(=O)N2CCCCC2CCO)cc1 (stereo not given)
inactive: RPMI-8226 > 100 µM | RXF 393 > 100 µM | HOP-62 > 100 µM | A549 > 100 µM | IGROV-1 > 100 µM | SK-OV-3 > 100 µM | ACHN > 100 µM | HCC 2998 > 100 µM | NCI-H226 > 100 µM | SF-539 > 100 µM | NCI-H460 > 100 µM | SN12C > 100 µM | COLO 205 > 100 µM | SW-620 > 100 µM | CCRF-CEM > 100 µM | EKVX > 100 µM
